Results on 30 compounds are retold here after patent US20200368267A1, “PROPHYLACTIC AND/OR THERAPEUTIC AGENT FOR AMYOTROPHIC LATERAL SCLEROSIS” (KYOTO UNIVERSITY, priority 2017, published 2020).

The test system of assay [1] is MNs with mutant SOD1 gene (L144FVX). The assay can be described thus: Large scale screen using ALS MN (MN survival readout). It is filed as cell-based, human. Particulars: for MN index: compounds at final concentration 10 μM added on day 7, cells fixed and stained on day 14, viable MNs stained with βIII-tubulin. Here is the method:
(§1) iPS cell cells containing LNI cassette were dissociated into single cells using Accutase, and seeded together with 1 μg/ml of doxycycline (TAKARA, Kusatsu, Japan) in N3 medium containing 1 μM retinoic acid, 1 μM SAG, 10 ng/ml BDNF, 10 ng/ml GDNF, and 10 ng/ml NT-3 on a 96 well plate (BD Bioscience) coated with Matrigel. The cells were fixed and stained on days 7 and 14. The number of viable MNs stained with βIII-tubulin was quantified by IN Cell Analyzer 6000 and expressed as the number of day 14/day 7. […] In this assay, therefore, βIII-tubulin positive neurons were defined as MN. Neurite and cell body were detected by optimized fluorescence levels, and the number of cell bodies having neurite was counted as the number of surviving neurons using IN Cell Developer toolbox software 1.9.
iPS cell cells containing LNI cassette were dissociated into single cells using Accutase, and seeded together with 1 ng/ml of doxycycline in N3 medium containing 1 μM RA, 1 μM SAG, 10 ng/ml BDNF, 10 ng/ml GDNF and 10 ng/ml NT-3 on a 96 well plate (BD Bioscience) coated with Matrigel. The libraries used for drug screening were Microsource US Drugs (Microsource Discovery Systems), Microsource International Drugs (Microsource Discovery Systems), and kinase inhibitor purchased from EMD and Selleck Chemicals. Using Integrity and Nextbio data base, existing drugs and test drugs in clinical trials were selected from these libraries and used for throughput screening. […] DMSO was used as a negative control, and kenpaullone, which is a candidate drug for ALS treatment, was used as a positive control. The number of viable MNs stained with βIII-tubulin was quantified by IN Cell Analyzer 6000.

The subject of assay [2] is mutant SOD1 Tg mice. The assay can be described thus: ALS model mouse (Tg-G93A SOD1 mouse). It is filed as in vivo. The conditions noted are these: 5 mg/kg intraperitoneal from 8th week for 5 weeks; mean±SD, n=26 per group; Kaplan-Meier.
Assay [3] relates to mutant SOD1 ALS MNs (ALS1). As to the kind of experiment: MN survival assay and high content analysis. In kind it is cell-based, human. Particulars: for MN survival: mutant SOD1 ALS MNs (ALS1), compound added day 7, counted day 14. On the procedure: as §1
Short interfering RNA (siRNA) was purchased from Life Technologies (siRNA ID of Src siRNA 1: s13414; siRNA ID of Src siRNA 2: s13413; siRNA ID of c-Abl siRNA 1: s866; siRNA ID of c-Abl siRNA 2: s864; siRNA ID of mTOR siRNA: s604). Scramble siRNA purchased from Life Technologies was used as a negative control of siRNA. iPS cells were dissociated and plated with dox in a 96 well plate. On day 7, siRNA was transfected with Lipofectamine RNAiMAX (Thermo Fisher Scientific). Viable MN was evaluated 4 days after transfection by immunostaining with βIII-tubulin, followed by analysis with IN Cell Analyzer 6000 and IN Cell Developer toolbox software 1.9.

SMILES strings stand for the structures. Counter-ions that a name gives are not always drawn.

The compound `CCOc1ccn(-c2ccc(F)cc2)c(=O)c1C(=O)Nc1ccc(Oc2ccnc(N)c2Cl)c(F)c1` [BMS 777607] registered an MN index in assay [1] of 8.551.

`Cc1nc(N)sc1-c1ccnc(Nc2ccc(N3CCOCC3)cc2)n1` [CYC116] registered an MN index in assay [1] of 8.142.

For the compound `O=C(c1ccc(/C=C/c2n[nH]c3ccccc23)cc1)N1CCNCC1` [KW 2449], the MN index in assay [1] was 7.722.

In turn, `COCCNCc1ccc(-c2cc3nccc(Oc4ccc(NC(=S)NC(=O)Cc5ccc(F)cc5)cc4F)c3s2)nc1` [MGCD-265] showed an MN index in assay [1] of 7.623.

On to `C[C@@H](Oc1cc(-c2cnn(C3CCNCC3)c2)cnc1N)c1c(Cl)ccc(F)c1Cl` [PF-2341066], for which the MN index in assay [1] is 7.595.

`Cc1cc(Nc2cc(N3CCN(C)CC3)nc(Sc3ccc(NC(=O)C4CC4)cc3)n2)n[nH]1` [VX-680] gave an MN index in assay [1] of 9.578.

Regarding `Cc1c(C)c2c(c(C)c1O)CCC(C)(CCCC(C)CCCC(C)CCCC(C)C)O2` (stereo not drawn) [alpha-tochopherol], the MN index in assay [1] worked out at 9.456.

`CCN(CC)Cc1cc(Nc2ccnc3cc(Cl)ccc23)ccc1O` [amodiaquine dihydrochloride]: the MN index in assay [1] was 8.98.

Turning to `CN1CCc2cccc3c2[C@H]1Cc1ccc(O)c(O)c1-3` [apomorphine hydrochloride], in assay [1], the MN index worked out at 7.257.

For the compound `CNC(=O)c1ccccc1Sc1ccc2c(/C=C/c3ccccn3)n[nH]c2c1` [axitinib], in assay [1], the MN index is 7.353.

`CN(C)CCCn1cc(C2=C(c3c[nH]c4ccccc34)C(=O)NC2=O)c2ccccc21` [bisindolylmaleimide I] had an MN index in assay [1] of 7.963.

`COc1cc(Nc2c(C#N)cnc3cc(OCCCN4CCN(C)CC4)c(OC)cc23)c(Cl)cc1Cl` [bosutinib (SKI-606), bosutinib] came in with an MN index in assay [1] of 7.196. Further, in assay [2], the disease onset was 123.2 ± 9.1 days and the survival time amounted to 164.1 ± 9.4 days.

In the case of `CCCC1O[C@@H]2C[C@H]3[C@@H]4CCC5=CC(=O)C=C[C@]5(C)[C@H]4[C@@H](O)C[C@]3(C)[C@]2(C(=O)CO)O1` (some centres unmarked) [budesonide], in assay [1], the MN index is recorded as 10.27.

`CCCCOC(=O)c1ccc(N)cc1` [butamben] had an MN index in assay [1] of 7.391.

In the case of `CCN(CC)CCCC(C)Nc1ccnc2cc(Cl)ccc12` (centres unmarked) [chloroquine], the “effect of autophagy inhibitor on the protective effect of bosutinib in MN survival assay” value in assay [3] (added to MNs with bosutinib treatment) was “decreased the protective effect of bosutinib”.

`Cc1nc(Nc2ncc(C(=O)Nc3c(C)cccc3Cl)s2)cc(N2CCN(CCO)CC2)n1` [dasatinib]: the MN index in assay [1] came out at 6.659.

As to `Cn1cc(C2=C(c3cn(C4CCN(Cc5ccccn5)CC4)c4ccccc34)C(=O)NC2=O)c2ccccc21` [enzastaurin], the MN index in assay [1] turned out to be 9.841.

In turn, `O=C(O)CCC(=O)c1ccc(-c2ccccc2)cc1` [fenbufen] came in with an MN index in assay [1] of 7.224.

Compound `CC1(C)O[C@@H]2C[C@H]3[C@@H]4C[C@H](F)C5=CC(=O)C=C[C@]5(C)[C@H]4[C@@H](O)C[C@]3(C)[C@]2(C(=O)CO)O1` [flunisolide] showed an MN index in assay [1] of 7.857.

As for `COc1ccc2c(c1OC)C(=O)O[C@@H]2[C@H]1c2cc3c(cc2CCN1C)OCO3` [hydrastine (1R, 9S)], the MN index in assay [1] was 7.525.

In turn, `Oc1ccc(O)cc1` [hydroquinone] showed an MN index in assay [1] of 7.957.

`Cc1ccc(NC(=O)c2ccc(CN3CCN(C)CC3)cc2)cc1Nc1nccc(-c2cccnc2)n1` [imatinib]: the MN survival result in assay [3] is recorded as “increased MN survival”.

As to `O=C1Cc2c([nH]c3ccc(Br)cc23)-c2ccccc2N1` [kenpaullone], the “positive control effect on ALS MN survival” value in assay [1] (50 μM, positive control assays) was “positive effect was confirmed”.

Regarding `CCN(CCCCOC(=O)c1ccc(OC)c(OC)c1)C(C)Cc1ccc(OC)cc1` (centres unmarked) [mebeverine hydrochloride], the MN index in assay [1] was found to be 6.856.

For `Cc1cn(-c2cc(NC(=O)c3ccc(C)c(Nc4nccc(-c5cccnc5)n4)c3)cc(C(F)(F)F)c2)cn1` [nilotinib], the MN survival entry in assay [3] is on record as “increased MN survival”.

For `Cc1ccc(Nc2nccc(N(C)c3ccc4c(C)n(C)nc4c3)n2)cc1S(N)(=O)=O` [pazopanib hydrochloride], the MN index in assay [1] is recorded as 9.533.

The compound `O=C(/C=C/C=C/c1ccc2c(c1)OCO2)N1CCCCC1` [piperine] came in with an MN index in assay [1] of 7.391.

With `Cc1cc2nc3c(=O)[nH]c(=O)nc-3n(C[C@H](O)[C@H](O)[C@H](O)CO)c2cc1C` [riboflavin], the MN index in assay [1] was found to be 9.554.

Compound `CCN(CC)CCNC(=O)c1c(C)[nH]c(/C=C2\C(=O)Nc3ccc(F)cc32)c1C` [sunitinib malate] yielded an MN index in assay [1] of 8.133.

For `COc1cc2nccc(Oc3ccc(NC(=O)Nc4cc(C)on4)c(Cl)c3)c2cc1OC` [tivozanib], the MN index in assay [1] is 17.26.
